What was measured:
[1] = target: T1, human sodium glucose cotransporter 2 (Homo sapiens, UniProt P31639); experiment: SGLT-2 assay: 14C-AMG uptake in CHO-hSGLT2 or HEK293-hSGLT2 cells; assay type: cell-based; conditions: n = 1-4, hSGLT2-transfected cells, read-out: SGLT2 IC50 nM (n = 1-4)
T1 construct: expressed in transfected cells; host or cells: CHO-K1 (ATCC CCL-61) or HEK293 (ATCC CRL-1573), stably transfected with pZeoSV expression vector
T1 sequence (P31639 1-672): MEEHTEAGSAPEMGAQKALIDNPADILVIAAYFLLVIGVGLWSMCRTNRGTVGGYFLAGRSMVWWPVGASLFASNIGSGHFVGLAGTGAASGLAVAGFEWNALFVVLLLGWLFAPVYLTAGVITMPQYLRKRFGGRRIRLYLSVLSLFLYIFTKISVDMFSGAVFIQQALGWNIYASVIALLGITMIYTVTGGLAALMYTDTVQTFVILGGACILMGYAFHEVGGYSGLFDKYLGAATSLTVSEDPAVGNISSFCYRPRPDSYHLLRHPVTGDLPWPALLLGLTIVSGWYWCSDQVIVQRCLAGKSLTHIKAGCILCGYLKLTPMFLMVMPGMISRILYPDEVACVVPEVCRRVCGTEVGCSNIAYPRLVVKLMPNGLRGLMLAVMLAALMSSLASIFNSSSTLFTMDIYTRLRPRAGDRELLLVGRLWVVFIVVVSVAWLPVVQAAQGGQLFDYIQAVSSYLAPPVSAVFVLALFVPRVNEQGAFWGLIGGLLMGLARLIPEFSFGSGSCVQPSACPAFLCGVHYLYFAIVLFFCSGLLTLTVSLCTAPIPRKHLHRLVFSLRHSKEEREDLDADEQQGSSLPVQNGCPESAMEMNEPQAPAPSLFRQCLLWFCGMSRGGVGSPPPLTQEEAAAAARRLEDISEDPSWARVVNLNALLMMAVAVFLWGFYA
Experimental: These cell lines transport 14 C-labelled alpha-methyl-glucopyranoside (14 C-AMG, Amersham) into the interior of the cell in sodium-dependent manner.
The SGLT-2 assay is carried out as follows: CHO-hSGLT2 cells are cultivated in Ham's F12 Medium (BioWhittaker) with 10% foetal calf serum and 250 μg/mL zeocin (Invitrogen), and HEK293-hSGLT2 cells are cultivated in DMEM medium with 10% foetal calf serum and 250 μg/mL zeocin (Invitrogen). The cells are detached from the culture flasks by washing twice with PBS and subsequently treating with trypsin/EDTA. After the addition of cell culture medium the cells are centrifuged, resuspended in culture medium and counted in a Casy cell counter. Then 40,000 cells per well are seeded into a white, 96-well plate coated with poly-D-Iysine and incubated overnight at 37° C., 5% CO2. The cells are washenwice with 250 μl of assay buffer (Hanks Balanced Salt Solution, 137 mM NaCl, 5.4 mM KCl, 2.8 mM CaCl2, 1.2 mM MgSO4 and 10 mM HEPES (pH 7.4), 50 μg/mL of gentamycin). 250 μl of assay buffer and 5 μl of test compound are then added to each well and the plate is incubated for a further 15 minutes in the incubator. 5 μl of 10% DMSO are used as the negative control. The reaction is started by adding 5 μl of 14 C-AMG (0.05 μCi) to each well. After 2 hours' incubation at 37° C., 5% CO2, the cells are washed again with 250 μl of PBS (200C) and then lysed by the addition of 25 μl of 0.1 N NaOH (5 min. at 37° C.). 200 μl of MicroScint20 (Packard) are added to each well and incubation is continued for a further 20 min at 37° C. After this incubation the radioactivity of the 14 C-AMG absorbed is measured in a Topcount (Packard) using a 14 C scintillation program.

human SGLT1 = target: T2, human SGLT1 (Homo sapiens, UniProt P13866); experiment: hSGLT1 assay: analogous [14C]-AMG uptake in CHO-K1 or HEK293 cells expressing hSGLT1; assay type: cell-based; conditions: n = 1-4, hSGLT1-transfected cells
T2 construct: expressed in transfected cells; host or cells: CHO-K1 or HEK293 cells
T2 sequence (P13866 1-664): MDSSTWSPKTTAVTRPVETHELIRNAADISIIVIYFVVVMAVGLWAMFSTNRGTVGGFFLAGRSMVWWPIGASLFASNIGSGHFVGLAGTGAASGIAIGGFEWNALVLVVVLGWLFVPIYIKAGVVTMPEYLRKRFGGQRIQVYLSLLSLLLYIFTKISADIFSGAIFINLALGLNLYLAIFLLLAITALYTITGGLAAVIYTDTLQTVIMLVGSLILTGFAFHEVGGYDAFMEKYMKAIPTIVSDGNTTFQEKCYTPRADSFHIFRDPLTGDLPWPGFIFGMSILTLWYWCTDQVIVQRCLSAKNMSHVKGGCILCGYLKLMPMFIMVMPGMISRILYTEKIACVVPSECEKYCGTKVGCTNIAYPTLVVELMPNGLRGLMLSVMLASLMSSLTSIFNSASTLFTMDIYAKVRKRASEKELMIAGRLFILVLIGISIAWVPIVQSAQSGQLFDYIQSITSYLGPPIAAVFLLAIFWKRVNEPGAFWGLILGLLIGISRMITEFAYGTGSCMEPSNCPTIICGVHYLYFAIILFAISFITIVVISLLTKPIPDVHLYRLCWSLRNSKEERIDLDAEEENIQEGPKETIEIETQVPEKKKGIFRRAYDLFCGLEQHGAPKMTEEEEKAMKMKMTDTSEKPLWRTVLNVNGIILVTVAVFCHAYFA
Experimental: To determine human SGLT1 inhibitory activity, an analogous test was set up in which the cDNA for hSGLTI (Genbank Ace. No. NM000343) instead of hSGLT2 cDNA is expressed in CHO-K1 or HEK293 cells. The uptake assay buffer in the case of the hSGLT1 assay contains 10 mM HEPES, 5 mM Tris, 140 mM NaCl, 2 mM KCl, 1 mM CaCl2, and 1 mM MgCl2, pH 7.4 containing 0.5 mM of α-methyl-D-glucopyranoside (AMG), 10 μM of [^14C]-α-methyl-D-glucopyranoside and different inhibitor concentrations.

IC50 [1]	IC50 (human SGLT1)	SMILES
85 nM		CCOc1ccc(Cc2cc([C@@H]3O[C@H](CSc4ncccn4)[C@@H](O)[C@H](O)[C@H]3O)ccc2Cl)cc1 [Example 8, (2S,3R,4R,5S,6S)-2-[4-Chloro-3-(4-ethoxy-benzyl)-phenyl]-6-(pyrimidin-2-ylsulfanylmethyl)-tetrahydro-pyran-3,4,5-triol]
20 nM	< 1000 nM	CCOc1ccc(Cc2cc([C@@H]3O[C@H](CSc4nnnn4C)[C@@H](O)[C@H](O)[C@H]3O)ccc2Cl)cc1 [Example 10, (2S,3R,4R,5S,6S)-2-[4-Chloro-3-(4-ethoxy-benzyl)-phenyl]-6-(1-methyl-1H-tetrazol-5-ylsulfanylmethyl)-tetrahydro-pyran-3,4,5-triol]
60 nM	< 1000 nM	CCOc1ccc(Cc2cc([C@@H]3O[C@H](CSc4cccs4)[C@@H](O)[C@H](O)[C@H]3O)ccc2Cl)cc1 [Example 11, (2S,3R,4R,5S,6S)-2-[4-Chloro-3-(4-ethoxy-benzyl)-phenyl]-6-(thiophen-2-ylsulfanylmethyl)-tetrahydro-pyran-3,4,5-triol]
65 nM		CCOc1ccc(Cc2cc([C@@H]3O[C@H](CSc4nc5ccccc5[nH]4)[C@@H](O)[C@H](O)[C@H]3O)ccc2Cl)cc1 [Example 15, (2S,3S,4R,5R,6S)-2-(1H-Benzoimidazol-2-ylsulfanylmethyl)-6-[4-chloro-3-(4-ethoxy-benzyl)-phenyl]-tetrahydro-pyran-3,4,5-triol]
36 nM		CCOc1ccc(Cc2cc([C@@H]3O[C@H](CSc4ccccc4CO)[C@@H](O)[C@H](O)[C@H]3O)ccc2Cl)cc1 [Example 23, (2S,3R,4R,5S,6S)-2-[4-Chloro-3-(4-ethoxy-benzyl)-phenyl]-6-(2-hydroxymethyl-phenylsulfanylmethyl)-tetrahydro-pyran-3,4,5-triol]
57 nM		CCOc1ccc(Cc2cc([C@@H]3O[C@H](CSc4ccccc4C(N)=O)[C@@H](O)[C@H](O)[C@H]3O)ccc2Cl)cc1 [Example 24, 2-{(2S,3S,4R,5R,6S)-6-[4-Chloro-3-(4-ethoxy-benzyl)-phenyl]-3,4,5-trihydroxy-tetrahydro-pyran-2-ylmethylsulfanyl}-benzamide]
7 nM	< 50 nM	CCOc1ccc(Cc2cc([C@@H]3O[C@H](CSc4cc(NC(C)=O)ccc4F)[C@@H](O)[C@H](O)[C@H]3O)ccc2Cl)cc1 [Example 25, N-(3-{(2S,3S,4R,5R,6S)-6-[4-Chloro-3-(4-ethoxy-benzyl)-phenyl]-3,4,5-trihydroxy-tetrahydro-pyran-2-ylmethylsulfanyl}-4-fluoro-phenyl)-acetamide]
12 nM	< 50 nM	CCOc1ccc(Cc2cc([C@@H]3O[C@H](CSc4cc(C(N)=O)ccc4F)[C@@H](O)[C@H](O)[C@H]3O)ccc2Cl)cc1 [Example 26]
6 nM	< 50 nM	CCOc1ccc(Cc2cc([C@@H]3O[C@H](CSc4cc(C(=O)NC)ccc4F)[C@@H](O)[C@H](O)[C@H]3O)ccc2Cl)cc1 [Example 27, 3-{(2S,3S,4R,5R,6S)-6-[4-Chloro-3-(4-ethoxy-benzyl)-phenyl]-3,4,5-trihydroxy-tetrahydro-pyran-2-ylmethylsulfanyl}-4-fluoro-N-methyl-benzamide]
6 nM		CCOc1ccc(Cc2cc([C@@H]3O[C@H](CSc4cc(C(=O)N5CCCC5)ccc4F)[C@@H](O)[C@H](O)[C@H]3O)ccc2Cl)cc1 [Example 36, (3-{(2S,3S,4R,6R,6S)-6-[4-Chloro-3-(4-ethoxy-benzyl)-phenyl]-3,4,5-trihydroxy-tetrahydro-pyran-2-ylmethylsulfanyl}-4-fluoro-phenyl)-pyrrolidin-1-yl-methanone]
28 nM		CCOc1ccc(Cc2cc([C@@H]3O[C@H](CSc4ccc(NC(C)=O)cc4)[C@@H](O)[C@H](O)[C@H]3O)ccc2Cl)cc1 [Example 61, N-(4-{(2S,3S,4R,6R,6S)-6-[4-Chloro-3-(4-ethoxy-benzyl)-phenyl]-3,4,6-trihydroxy-tetrahydro-pyran-2-ylmethylsulfanyl}-phenyl)-acetamide]
9 nM		CCOc1ccc(Cc2cc([C@@H]3O[C@H](CSc4cccc(NC(=O)CC)c4)[C@@H](O)[C@H](O)[C@H]3O)ccc2Cl)cc1 [Example 67, N-(3-{(2S,3S,4R,5R,6S)-6-[4-Chloro-3-(4-ethoxy-benzyl)-phenyl]-3,4,5-trihydroxy-tetrahydro-pyran-2-ylmethylsulfanyl}-phenyl)-propionamide]
28 nM		CCOc1ccc(Cc2cc([C@@H]3O[C@H](CSc4cccc(NC(=O)OC)c4)[C@@H](O)[C@H](O)[C@H]3O)ccc2Cl)cc1 [Example 69]
61 nM		CCOc1ccc(Cc2cc([C@@H]3O[C@H](CSc4cccc(CO)c4)[C@@H](O)[C@H](O)[C@H]3O)ccc2Cl)cc1 [Example 77, (2S,3R,4R,5S,6S)-2-[4-Chloro-3-(4-ethoxy-benzyl)-phenyl]-6-(3-hydroxymethyl-phenylsulfanylmethyl)-tetrahydro-pyran-3,4,5-triol]
72 nM		CCOc1ccc(Cc2cc([C@@H]3O[C@H](COc4cccc(C(=O)NC)c4)[C@@H](O)[C@H](O)[C@H]3O)ccc2Cl)cc1 [Example 83, 3-{(2R,3S,4R,5R,6S)-6-[4-Chloro-3-(4-ethoxy-benzyl)-phenyl]-3,4,5-trihydroxy-tetrahydro-pyran-2-ylmethoxy}-N-methyl-benzamide]
11 nM		CCOc1ccc(Cc2cc([C@@H]3O[C@H](COc4cccc(C(=O)N5CCCC5)c4)[C@@H](O)[C@H](O)[C@H]3O)ccc2Cl)cc1 [Example 84, (3-{(2R,3S,4R,5R,6S)-6-[4-Chloro-3-(4-ethoxy-benzyl)-phenyl]-3,4,5-trihydroxy-tetrahydro-pyran-2-ylmethoxy}-phenyl)-pyrrolidin-1-yl-methanone]
9 nM		CCOc1ccc(Cc2cc([C@@H]3O[C@H](COc4cccc(C(=O)N5CCC5)c4)[C@@H](O)[C@H](O)[C@H]3O)ccc2Cl)cc1 [Example 85]

From patent publication US20110230403A1, “GLYCOSIDE DERIVATIVES AND USES THEREOF” (NOVARTIS AG, priority 2008, published 2011)
